Like-named read-outs stand apart in the source and are kept apart here.
Assays:
HUVEC cells = experiment: Apoptosis assay (Annexin V-FITC/PI flow cytometry), HUVEC; format: cell-based, human
Description: (§1) Two reference concentrations, 5 μM and 50 μM, and two distinct treatment durations, 24 and 48 h, were employed to assess the influence of the test compounds on apoptosis in both normal and tumor cells. […] HUVEC cells were exposed to both drugs.
(§2) The apoptosis assay was performed according to the manufacturer’s instructions using the Annexin V-FITC kit (BD Biosciences, San Jose, CA, USA). Cells untreated and treated with the experimental compound were suspended in a cold binding buffer. The percentages of apoptotic cells were determined by double staining with Annexin V-FITC/PI. In each tube was added 400 μL of Annexin V binding buffer and the 5000 cells/sample for 15 min in the dark at room temperature. The cells were analyzed using a FACSCantoII flow-cytometer (Becton Dickinson—BD, La Jolla, CA, USA). The analysis was performed using DIVA 6.2 software to discriminate viable cells (FITC-PI-) from necrotic cells (FITC + PI+), and early apoptosis (FITC + PI) from late apoptosis.

HUVEC normal cells = experiment: MTS cell viability assay, HUVEC normal cells; format: cell-based, human
Description: (§3) To determine the optimal working concentration, dose-effect curves were made for each compound in the range of concentrations between 6.25 and 400 μM.
(§4) LoVo (human colorectal adenocarcinoma) human cancer cell line and HUVEC normal cells were purchased from American Type Culture Collection (ATCC). The MCF-7 human breast adenocarcinoma cell line was provided from European Collection of Authenticated Cell Cultures (ECACC). HUVEC normal cells, isolated from the vascular endothelium of an umbilical cord, were used as a reference. Adherent cells were maintained in culture in Dulbecco’s modified Eagle medium/nutrient mixture F-12 (DMEM:F12) with 2 mM of L-glutamine, 10% fetal bovine serum, 100 units/mL of penicillin and 100 μg/mL of streptomycin, and incubated at 37 °C in a 5% CO2-humidified atmosphere. After 24 h, adherent cells were treated with different concentrations of the compounds for different periods of time. Cis-Pt and DOX, conventional oncology drugs used in cancer treatments, can be used as a positive control of the experiments. […] Then, cells were detached with a nonenzymatic solution of phosphate-buffered saline (PBS)/1 mM EDTA and washed twice in PBS.
(§5) The study utilized a colorimetric assay based on MTS (chemically known as 3-(4,5-dimethylthiazol-2-yl)-5-(3-carboxymethoxyphenyl)-2-(4-sulfophenyl)-2H-tetrazolium) and called CellTiter 96 Aqueous One Solution Cell proliferation Assay (Promega, Madison, WI, USA) in order to measure cell viability. The assay was performed in triplicate in 96-well microtiter plates with a flat bottom (Falcon). A number of 1 × 10^4 cells/well were cultured in 100 μL for 24 h, culture supernatants were discarded, and then cells were treated for 24 and 48 h with increasing concentrations of the tested compound. After the end of the incubation time, 20 μL of the reagent containing MTS and PES (phenazine ethosulfate) was added in each well. Plates were incubated for 4 h at 37 °C, with mild agitation every 15 min. The reduction in the tetrazolium compound to formazan was spectrophotometrically measured at λ = 492 nm using a Dynex plate reader (DYNEX Technologies MRS, Chantilly, VA, USA). The percentage of viability compared to untreated cells (considered 100% viable) was calculated with the formula:(1) Cell viability (%)=Absorbance treated cells−Absorbance culture medium/Absorbance untreated cells−Absorbance culture medium×100
(§6) The cell viability compared was calculated and data were expressed as a mean ± standard deviation (SD) of the experiments and obtained in triplicate (n = 3).

LoVo cells [1] = experiment: MTS cell viability assay, LoVo cells; format: cell-based, human
Description: as §3, §4, §5, §6

LoVo cells [2] = experiment: Apoptosis assay (Annexin V-FITC/PI flow cytometry), LoVo; format: cell-based, human
Description: as §1, §2

MCF-7 cells [3] = experiment: Apoptosis assay (Annexin V-FITC/PI flow cytometry), MCF-7; format: cell-based, human
Description: as §1, §2

Daphnia magna = Daphnia magna toxicity assay; format: in vivo; details: for Maximum Average L% (lethality): up to 200 µM
Description: The Daphnia magna bioassay results are presented in Table 3 as the maximum average percentage of lethality (L%) registered for each compound and the median lethal concentration (LC50) if the values permitted its calculation.
Daphnia magna Straus is parthenogenetically maintained at ‘Carol Davila’ University’s Department of Pharmaceutical Botany and Cell Biology. The culture was consistently maintained at a temperature of 25 °C, with a 16-h light and 8-h dark photoperiod. To ensure consistency, young daphnids were carefully chosen based on their size and kept in an artificial medium for 24 h prior to the assessment. The bioassay involved 10 daphnids per replicate, using tissue culture plates with 12 wells from Greiner Bio-One. The experimental procedure followed the protocol described in previous studies.
Each determination was carried out in duplicate.

MCF-7 cells [4] = experiment: MTS cell viability assay, MCF-7 cells; format: cell-based, human; details: for IC50: Homo sapiens
Description: as §3, §4, §5, §6

[5] = Homo sapiens, HUVEC, read-out: IC50 (48 h) HUVEC, 48 h exposure
[6] = Homo sapiens, HUVEC, 24 h exposure, read-out: IC50 (24 h) HUVEC
[7] = Homo sapiens, LoVo, read-out: IC50 (48 h) LoVo, 48 h exposure
[8] = Homo sapiens, LoVo, 24 h exposure, read-out: IC50 (24 h) LoVo
[9] = MCF7, read-out: IC50 (48 h) MCF-7, 48 h exposure
[10] = MCF7, 24 h exposure, read-out: IC50 (24 h) MCF-7

Row | Structure (SMILES) | Total Apoptosis (%) 24 h HUVEC (HUVEC cells; 5 μM) | Total Apoptosis (%) 48 h HUVEC (HUVEC cells; 5 μM) | Total Apoptosis (%) 24 h HUVEC (HUVEC cells; 50 μM) | Total Apoptosis (%) 48 h HUVEC (HUVEC cells; 50 μM) | IC50 (HUVEC normal cells; [5]) | IC50 (HUVEC normal cells; [6]) | IC50 (LoVo cells [1]; [7]) | IC50 (LoVo cells [1]; [8]) | Total Apoptosis (%) 24 h LoVo (LoVo cells [2]; 5 μM) | Total Apoptosis (%) 48 h LoVo (LoVo cells [2]; 5 μM) | Total Apoptosis (%) 24 h LoVo (LoVo cells [2]; 50 μM) | Total Apoptosis (%) 48 h LoVo (LoVo cells [2]; 50 μM) | Total Apoptosis (%) 24 h MCF-7 (MCF-7 cells [3]; 5 μM) | Total Apoptosis (%) 48 h MCF-7 (MCF-7 cells [3]; 5 μM) | Total Apoptosis (%) 24 h MCF-7 (MCF-7 cells [3]; 50 μM) | Total Apoptosis (%) 48 h MCF-7 (MCF-7 cells [3]; 50 μM) | Maximum Average L% (lethality) (Daphnia magna; 24 h) | Maximum Average L% (lethality) (Daphnia magna; 48 h) | IC50 (MCF-7 cells [4]; [9]) | IC50 (MCF-7 cells [4]; [10]) | also measured
1 | Nc1nnc(-c2ccccc2)s1 [2a, 5-Phenyl-1,3,4-thiadiazol-2-amine] | 12.8% | 14.7% | 15.0% | 18.4% | 83.8 µM | > 400 µM | 62.2 µM | 204 µM | 9.0% | 17.6% | 8.9% | 13.7% | 11.8% | 24.4% | 9.8% | 24.7% | 0% | 40% | > 400 µM | > 400 µM | 
2 | Nc1nnc(-c2ccccc2CS(=O)(=O)c2ccccc2)s1 [2g, 5-[2-(Benzenesulfonylmethyl)phenyl]-1,3,4-thiadiazol-2-amine] | 19.0% | 14.7% | 19.3% | 14.1% | 44.6 µM | > 400 µM | 2.44 µM | 18.1 µM | 13.6% | 23.6% | 19.6% | 24.8% | 18.7% | 42.2% | 19.7% | 44.5% | 0% | 20% | 23.3 µM | 43.3 µM | lethality percentages in the Daphnia test (Daphnia magna; even at the highest concentration of 200 µM): below 20%
3 | COc1cccc2c1C(=O)c1c(O)c3c(c(O)c1C2=O)C[C@@](O)(C(=O)CO)C[C@@H]3O[C@H]1C[C@H](N)[C@H](O)[C@H](C)O1 [DOX, Doxorubicin, reference compound] | 15.2% | 9.5% | 18.6% |  | 1.35 µM | 1.03 µM |  |  |  |  |  |  |  | 33.6% | 19.0% | 49.0% |  |  | 87.4 µM | 129 µM | 
4 | N.N.[Cl][Pt][Cl] [Cis-Pt, Cisplatin, reference compound] | 15.7% | 14.8% | 21.7% | 17.4% |  |  |  |  | 15.7% | 31.6% | 24.5% | 38.7% |  |  |  |  |  |  |  |  | IC50 (HUVEC normal cells; 24 h exposure, read-out: IC50 (24 h) HUVEC): 11.1 µM; IC50 (HUVEC normal cells; read-out: IC50 (48 h) HUVEC, 48 h exposure): 8.23 µM; IC50 (LoVo cells [1]; 24 h exposure, read-out: IC50 (24 h) LoVo): 12.8 µM; IC50 (LoVo cells [1]; read-out: IC50 (48 h) LoVo, 48 h exposure): 80.1 µM
5 | COc1cc(-c2nnc(N)s2)cc(OC)c1OC [2e, 5-(3,4,5-Trimethoxyphenyl)-1,3,4-thiadiazol-2-amine] | 26.3% | 13.1% | 24.3% | 15.5% | 300 µM | > 400 µM | 79.2 µM | 108 µM | 4.9% | 14.3% | 16.4% | 19.9% | 9.1% | 24.6% | 14.9% | 34.2% | 0% | 5% | > 400 µM | > 400 µM | 
6 | Nc1nnc(-c2ccc(O)c(O)c2)s1 [2c, 5-(3,4-Dihydroxyphenyl)-1,3,4-thiadiazol-2-amine] | 16.6% | 15.6% | 12.1% | 12.1% | 155 µM | > 400 µM | 117 µM | 163 µM | 7.5% | 13.0% | 6.8% | 13.8% | 11.7% | 26.6% | 7.6% | 15.1% | 0% | 25% | 398 µM | > 400 µM | viability of MCF-7 cells (MCF-7 cells [4]; 48-h period): less than 50%

Reference: article PMC10743895, “Synthesis of 1,3,4-Thiadiazole Derivatives and Their Anticancer Evaluation” (International Journal of Molecular Sciences, 2023)
